Experimental data taken from patent US6608086B2, “Dihydropyridines and new uses thereof” (Synaptic Pharmaceutical Corporation, priority 1993, dated 2003).
Structures can show the parent of a compound that is named as a salt. Where two headings read alike, the source gives them in different places.

Key:
[1] = target: T1, α1A Human Adrenergic Receptor (Homo sapiens, UniProt P25100); assay: Radioligand binding, [3H]prazosin, cloned human α1A adrenergic receptor; conditions: pKi alpha-1 1a
T1 construct: The entire coding region of α1A (1719 bp); expressed in transfected cells
T1 sequence (P25100 1-572): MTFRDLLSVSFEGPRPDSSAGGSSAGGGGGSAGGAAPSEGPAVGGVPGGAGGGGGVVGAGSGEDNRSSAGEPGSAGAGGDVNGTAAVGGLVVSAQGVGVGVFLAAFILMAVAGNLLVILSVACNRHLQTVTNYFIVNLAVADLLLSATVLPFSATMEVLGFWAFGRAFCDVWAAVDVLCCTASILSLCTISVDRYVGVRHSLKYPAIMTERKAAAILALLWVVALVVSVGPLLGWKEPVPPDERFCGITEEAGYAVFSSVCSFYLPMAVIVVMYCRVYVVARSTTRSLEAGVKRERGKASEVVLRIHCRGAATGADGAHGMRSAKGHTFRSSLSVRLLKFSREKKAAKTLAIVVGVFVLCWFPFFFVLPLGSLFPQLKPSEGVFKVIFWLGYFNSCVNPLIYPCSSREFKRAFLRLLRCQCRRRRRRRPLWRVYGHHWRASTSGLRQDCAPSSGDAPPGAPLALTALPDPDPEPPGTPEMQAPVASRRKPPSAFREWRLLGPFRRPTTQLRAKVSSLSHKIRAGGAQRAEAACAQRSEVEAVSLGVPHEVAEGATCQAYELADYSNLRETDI
Procedure, shortened: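 Competition binding used membrane preparations of transfected LM(tk−) cells and the α1 antagonist [3H]prazosin at 0.5 nM, incubated 20 min at 37° C in Tris-HCl buffer, pH 7.5.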

[2] = target: T2, α1B Human Adrenergic Receptor (Homo sapiens, UniProt P35368); assay: Radioligand binding, [3H]prazosin, cloned human α1B adrenergic receptor; conditions: cloned human receptor in LM(tk-) cell membranes, SEM and n in lines below
T2 construct: The entire coding region of α1B (1563 bp); expressed in transfected cells
T2 sequence (P35368 1-520): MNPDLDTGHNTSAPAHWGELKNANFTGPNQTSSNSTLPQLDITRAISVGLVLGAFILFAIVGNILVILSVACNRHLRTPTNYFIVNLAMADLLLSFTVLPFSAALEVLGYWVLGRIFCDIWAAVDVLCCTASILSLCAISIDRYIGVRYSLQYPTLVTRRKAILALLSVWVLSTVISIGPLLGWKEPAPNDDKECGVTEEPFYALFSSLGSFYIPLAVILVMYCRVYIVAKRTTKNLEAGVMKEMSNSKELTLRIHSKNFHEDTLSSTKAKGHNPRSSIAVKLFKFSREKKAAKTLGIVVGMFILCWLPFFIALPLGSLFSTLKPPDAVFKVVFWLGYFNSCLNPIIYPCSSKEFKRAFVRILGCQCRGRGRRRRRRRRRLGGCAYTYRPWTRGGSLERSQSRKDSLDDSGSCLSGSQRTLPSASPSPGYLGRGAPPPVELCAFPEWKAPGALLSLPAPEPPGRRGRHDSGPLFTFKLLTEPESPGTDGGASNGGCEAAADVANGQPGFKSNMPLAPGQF
Procedure, shortened: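 Membranes from stably transfected LM(tk−) cells, resuspended in 50 mM Tris-HCl, 1 mM MgCl2, 0.1% ascorbic acid, pH 7.5, were incubated with 0.5 nM [3H]prazosin for 20 min at 37° C. Nonspecific binding defined with 10 μM phentolamine; bound ligand separated by GF/B filtration.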

[3] = target: T3, α2A receptor (Homo sapiens, UniProt P08913); assay: Competition binding, [3H]rauwolscine, human α2A receptor
T3 construct: host or cells: LM(tk-) cells, line L-α2A
T3 sequence (P08913 1-465): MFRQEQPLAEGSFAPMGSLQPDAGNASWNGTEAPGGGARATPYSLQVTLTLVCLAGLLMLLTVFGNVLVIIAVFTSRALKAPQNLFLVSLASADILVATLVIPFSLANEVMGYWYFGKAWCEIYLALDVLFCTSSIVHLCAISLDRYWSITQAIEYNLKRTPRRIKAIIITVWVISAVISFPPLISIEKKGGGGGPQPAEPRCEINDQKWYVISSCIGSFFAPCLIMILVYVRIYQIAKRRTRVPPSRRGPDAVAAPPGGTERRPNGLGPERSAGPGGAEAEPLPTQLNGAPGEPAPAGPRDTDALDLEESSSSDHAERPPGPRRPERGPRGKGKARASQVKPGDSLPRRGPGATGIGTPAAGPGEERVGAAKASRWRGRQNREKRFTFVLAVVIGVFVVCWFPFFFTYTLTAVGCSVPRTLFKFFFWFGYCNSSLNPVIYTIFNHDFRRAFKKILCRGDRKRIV
Procedure, shortened: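 Using 25 mM glycylglycine buffer at pH 7.6 (room temperature), membranes from LM(tk−) cells carrying α2A, α2B or α2C were competed against 0.5 nM [3H]rauwolscine to equilibrium. Separation was by GF/B filtration; phentolamine (10 μM) set nonspecific binding.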

[4] = read-out: pKi alpha-1 1b (converted)
[5] = [3H]prazosin, cloned human receptor in LM(tk-) cell membranes, SEM and n in lines below
[6] = [3H]rauwolscine, LM(tk-) cell line L-α2A, SEM and n in lines below, read-out: pKi alpha-2 2a (converted)

## COC(=O)C1=C(C)NC(C)=C(C(=O)NCCCN2CCC(c3ccccc3)(c3ccccc3)CC2)C1c1ccc(C)cc1 (stereo not drawn) [Example 19, 1,4-Dihydro-3-methoxycarbonyl-1,6-dimethyl-4-(4-methylphenyl)-5-(N-(3-(4,4-diphenylpiperidin-1-yl)propyl)carboxamido)pyridine]
[1]
  Ki: 316 nM
[2]; [4]
  Ki: 269 nM
[3]
  Ki: 1290 nM

## COC(=O)C1=C(C)NC(C)=C(C(=O)NCCCN2CCC(c3ccccc3)(c3ccccc3)CC2)C1c1ccc(F)cc1 (stereo not drawn) [Example 20, 4-(4-Fluorophenyl)-1,4-dihydro-3-methoxycarbonyl-2,6-dimethyl-5-(N-(3-(4,4-diphenylpiperidin-1-yl)propyl)carboxamido)pyridine]
[1]
  Ki: 1350 nM
[2]; [4]
  Ki: 120 nM
[3]
  Ki: 1780 nM

## COC(=O)C1=C(C)NC(C)=C(C(=O)NCCCN2CCC(c3ccccc3)(c3ccccc3)CC2)C1c1ccc(OC)cc1 (stereo not drawn) [Example 21, 1,4-Dihydro-3-methoxycarbonyl-4-(4-Methoxyphenyl)-2,6-dimethyl-5-(N-(3-(4,4-diphenylpiperidin-1-yl)propyl)carboxamido)pyridine]
[1]
  Ki: 490 nM
[2]; [4]
  Ki: 204 nM
[3]
  Ki: 2090 nM

## COC(=O)C1=C(C)NC(C)=C(C(=O)NCCCN2CCC(c3ccccc3)(c3ccccc3)CC2)C1c1ccc2ccccc2c1 (stereo not drawn) [Example 22]
[1]
  Ki: 741 nM
[2]; [4]
  Ki: 138 nM
[3]
  Ki: 1580 nM

## COC(=O)C1=C(C)NC(C)=C(C(=O)NCCCN2CCC(c3ccccc3)(c3ccccc3)CC2)C1c1ccoc1 (stereo not drawn) [Example 23, 4-(3-Furyl)-1,4-dihydro-3-methoxycarbonyl-2,6-dimethyl-5-(N-(3-(4,4-diphenylpiperidin-1-yl)propyl)carboxamide)pyridine]
[1]; [5]
  Ki: 646 nM
[2]; pKi alpha-1 1b
  Ki: 214 nM
[3]; [6]
  Ki: 955 nM

## COC(=O)C1=C(C)NC(C)=C(C(=O)NCCCN2CCC(c3ccccc3)(c3ccccc3)CC2)C1c1ccc(Cl)c(Cl)c1 (stereo not drawn) [Example 24, 4-(3,4-Dichlorophenyl)-1,4-dihydro-3-methoxycarbonyl-2,6-dimethyl-5-(3-(D 44-diphenylpiperidin-1-yl)propylcarboxamido)pyridine]
[1]
  Ki: 324 nM
[2]; [4]
  Ki: 115 nM
[3]
  Ki: 912 nM

## COC(=O)C1=C(C)NC(C)=C(C(=O)NCCCN2CCC(c3ccccc3)(c3ccccc3)CC2)C1c1ccc(C(=O)OC)cc1 (stereo not drawn) [Example 25, 1,4-Dihydro-3-methoxycarbonyl-4-(4-methoxycarbonylphenyl)-2,6-dimethyl-5-(N-(3-(4,4-diphenylpiperidin-1-yl)propyl)carboxamide)pyridine]
[1]
  Ki: 646 nM
[2]; [4]
  Ki: 331 nM
[3]
  Ki: 1510 nM

## COC(=O)C1=C(C)NC(C)=C(C(=O)NCCCN2CCC(c3ccccc3)(c3ccccc3)CC2)C1c1ccc(OC)c(OC)c1 (stereo not drawn) [Example 26]
[1]
  Ki: 525 nM
[2]; [4]
  Ki: 437 nM
[3]
  Ki: 2140 nM

## COC(=O)C1=C(C)NC(C)=C(C(=O)NCCCN2CCC(c3ccccc3)(c3ccccc3)CC2)C1c1cc(OC)c(OC)c(OC)c1 (stereo not drawn) [Example 27]
[1]
  Ki: 380 nM
[2]; [4]
  Ki: 324 nM
[3]
  Ki: 1950 nM

## COC(=O)C1=C(C)NC(C)=C(C(=O)NCCCN2CCC(c3ccccc3)(c3ccccc3)CC2)C1c1ccc([N+](=O)[O-])c(C)c1 (stereo not drawn) [Example 28]
[1]; [5]
  Ki: 437 nM
[2]; pKi alpha-1 1b
  Ki: 240 nM
[3]; [6]
  Ki: 2290 nM

## COC(=O)C1=C(C)NC(C)=C(C(=O)NCCCN2CCC(c3ccccc3)(c3ccccc3)CC2)C1c1ccc([N+](=O)[O-])c(OC)c1 (stereo not drawn) [Example 29, 1,4-Dihydro-3-methoxycarbonyl-4-(3-methoxy-4-nitrophenyl)-2,6-dimethyl-5-(N-(3-(4,4-diphenylpiperidin-1-yl)propyl)carboxamido)pyridine]
[1]; [5]
  Ki: 263 nM
[2]; pKi alpha-1 1b
  Ki: 141 nM
[3]; [6]
  Ki: 692 nM

## CC1=C(C#N)C(c2ccc([N+](=O)[O-])cc2)C(C(=O)NCCCN2CCC(c3ccccc3)(c3ccccc3)CC2)=C(C)N1 (stereo not drawn) [Example 37]
[1]
  Ki: 692 nM
[2]; [4]
  Ki: 200 nM
[3]
  Ki: 708 nM

## CC1=C(C(=O)NCCCN2CCC(c3ccccc3)(c3ccccc3)CC2)C(c2ccc([N+](=O)[O-])cc2)C2=C(CCCC2=O)N1 (stereo not drawn) [Example 40, 1,4,5,6,7,8-Hexahydro-2-methyl-4-(4-nitrophenyl)-5-oxo-3-{N-[3-(4,4-diphenylpiperidin-1-yl)propyl]}carboxamidoquinoline]
[1]; [5]
  Ki: 550 nM
[2]; pKi alpha-1 1b
  Ki: 275 nM
[3]; [6]
  Ki: 1860 nM

## CCC1=C(C(N)=O)C(c2ccc([N+](=O)[O-])cc2)C(C(=O)NCCCN2CCC(c3ccccc3)(c3ccccc3)CC2)=C(C)N1 (stereo not drawn) [Example 41, 3-Carboxamido-2-ethyl-1,4-dihydro-6-methyl-4-(4-nitrophenyl)-3-{N-[3-(4,4-diphenylpiperidin-1-yl)propyl]}carboxamidopyridine]
[1]; [5]
  Ki: 501 nM
[2]; pKi alpha-1 1b
  Ki: 295 nM
[3]; [6]
  Ki: 427 nM

## CCC1=C(C(N)=O)C(c2ccc([N+](=O)[O-])cc2)C(C(=O)NCCCN2CCC(c3ccccc3)(c3ccccc3)CC2)=C(CC)N1 (stereo not drawn) [Example 42, 5-carboxamido-2,6-diethyl-1,4-dihydro-4-(4-nitrophenyl)-3-{N-[3-(4,4-diphenylpiperidin-1-yl)propyl]}carboxamidopyridine]
[1]; [5]
  Ki: 447 nM
[2]; pKi alpha-1 1b
  Ki: 282 nM
[3]; [6]
  Ki: 324 nM

## COC(=O)C1=C(C)NC(c2ccoc2)=C(C(=O)NCCCN2CCC(c3ccccc3)(c3ccccc3)CC2)C1c1ccc([N+](=O)[O-])cc1 (stereo not drawn) [Example 43, 2-(Furan-3-yl)-, 4-dihydro-5-methoxycarbonyl-6-methyl-4-(4-nitrophenyl)-3-(N-(3-(4,4-diphenylpiperidin-1-yl)propyl)carboxamidopyridine, hydrochloride salt]
[1]; [5]
  Ki: 316 nM
[2]; pKi alpha-1 1b
  Ki: 182 nM
[3]; [6]
  Ki: 661 nM

## COC(=O)C1=C(C)NC(C)=C(C(=O)N(C)CCCN2CCC(c3ccccc3)(c3ccccc3)CC2)C1c1ccc([N+](=O)[O-])cc1 (stereo not drawn) [Example 46, hydrochloride hemihydrate]
[1]
  Ki: 501 nM
[2]; [4]
  Ki: 240 nM
[3]
  Ki: 676 nM

## COC(=O)C1=C(C)NC(C)=C(C(=O)NCCN2CCC(c3ccccc3)(c3ccccc3)CC2)C1c1ccc([N+](=O)[O-])cc1 (stereo not drawn) [Example 52, 1,4-Dihydro-3-methoxycarbonyl-2,6-dimethyl-4-(4-nitrophenyl)-5-{N-[2-(4,4-diphenylpiperidin-1-yl)ethyl]}carboxamidopyridine hydrochloride hemihydrate]
[1]
  Ki: 1150 nM
[2]; [4]
  Ki: 77.6 nM
[3]
  Ki: 513 nM

## CC1=C(C(N)=O)C(c2ccc([N+](=O)[O-])cc2)C(C(=O)NCCN2CCC(c3ccccc3)(c3ccccc3)CC2)=C(C)N1 (stereo not drawn) [Example 54, 5-Carboxamide-1,4-dihydro-2,6-dimethyl-4-(4-nitrophenyl)-3-{N-[2-(4,4-diphenylpiperidin-1-yl)ethyl]}carboxamidopyridine hydrochloride hydrate]
[1]; [5]
  Ki: 347 nM
[2]; pKi alpha-1 1b
  Ki: 174 nM
[3]; [6]
  Ki: 468 nM
